Data: patent publication US20230257383A1, “COMPOUND SERVING AS BTK INHIBITOR, PREPARATION METHOD THEREFOR, AND USE THEREOF” (CHENGDU HYPERWAY PHARMACEUTICALS CO., LTD., priority 2020, published 2023)
pIC50: −log10 of the molar value.

Tests used:
[1] = system: DOHH2 cell proliferation; assay: In vitro cell proliferation inhibitory activity test (CTG), DOHH2; format: cell-based; details: Homo sapiens, DOHH-2
Protocol: (§1) Test Example 4: In Vitro Cell Proliferation Inhibitory Activity Test
(§2) Cells were cultured in 1640 medium, added with 10% inactivated FBS and 1% double antibiotics, and cultured at 37° C. and 5% CO2.
(§3) (1) Cells were routinely cultured until the cell density was 80%-90%, and the cells were harvested when their number reached the requirement.
(§4) (2) Cells were resuspended with corresponding culture medium, counted, and prepared into cell suspension at appropriate density.
(§5) (3) The cell suspension was added to a 96-well plate, 100 μL per well.
(§6) (4) Cells were cultured overnight in a 37° C., 5% CO2 incubator.
(§7) (1) The compounds to be tested were diluted with DMSO to make a stock solution with a final concentration of 20 mM for later use.
(§8) (2) The stock solution was diluted 10 times from 20 mM to 2 mM with DMSO, and then diluted 3 times from 2 mM to 9 concentrations.
(§9) (3) The blank control wells were cells plus 0.5% DMSO, as high-reading control wells.
(§10) (4) Wells with no cells and only medium were used as low-reading control wells.
(§11) 4: Cell treatment with compound
(§12) (1) 24 h after the cells were plated, the compounds acted alone, and 99 μL of growth medium was added to each well, followed by 1 μL of the compound prepared in step 3. The plate was shaken gently to mix uniformly, and then placed in a 37° C., 5% CO2 incubator.
(§13) (2) The cell plate was placed in an incubator for 72 h.
(§14) 5: Detection by CTG method
(§15) (1) The cell plate to be tested was placed at room temperature for 30 min, and 100 μL of medium was discarded from each well.
(§16) (2) 100 μL of CTG reagent (CelltiterGlo kit) was added to each well, placed on a fast shaker for 2 min, and stood at room temperature in the dark for 30 min.
(§17) (3) The chemiluminescent signal value was read with the Envision instrument.
(§18) IC50 was calculated by using GraphPad Prism 8 software. The IC50 (half inhibitory concentration) of the compound was derived using the following nonlinear fitting formula, and the results are shown in the following table:
(§19) Y=Bottom+(Top−Bottom)/(1+10^((Log IC50−X)×HillSlope))
(§20) X: log value of compound concentration, Y: inhibition rate (% inhibition)
(§21) Inhibition rate (% inhibition)=(reading of high-reading control well-reading of compound well)/(reading of high-reading control well-reading of low-reading control well)×100

[2] = system: DOHH-2-luc tumor cells in the mouse brain; assay: DOHH-2-Luc intracerebral tumor drug efficacy model test; format: in vivo; details: for inhibitory effect against the tumor compared with Tirabrutinib: DOHH2 tumor model in the mouse brain, same dose of 30 mg/kg (BID), FIG. 3; for fluorescence image of brain tumor (red area = tumor size): DOHH-2-Luc intracerebral model, same dose, FIG. 4; for side effects: mouse, 30 mg/kg (BID), after 21 days of administration
Protocol: Test Example 8: DOHH-2-Luc Intracerebral Tumor Drug Efficacy Model Test
DOHH-2-luc tumor cells were cultured in vitro with RPMI 1640 medium containing 10% fetal bovine serum and 500 ng/mL puromycin in a 37° C., 5% CO2 incubator. […] Tumor cells in logarithmic growth phase were used for inoculation of tumors in vivo.
2. Inoculation of Tumor Cell and Grouping
After the animal was anesthetized by intramuscular injection of Zoletil, it was fixed on the operating table in a prone position. The skin on the top of the head was disinfected with iodine and 75% alcohol respectively, and the skin was cut about 0.5 cm along the midline of the head to expose the coronal and sagittal lines. Being located about 0.5-1.0 mm above the coronal line and about 2 mm to the right of the sagittal line by using a brain locator, a hole was drilled with a 1 mL syringe needle. The micro-injector was inserted vertically to a depth of 3 mm at the location, slowly (about 1 min) injected with 3×10^5 DOHH-2-luc tumor cells/2 μL suspension and kept for 1 min. After pulling out the needle, the needle hole was quickly sealed with bone wax, and the wound was sutured with a stapler. About the 7th day after tumor inoculation, the animals were randomly divided into 5 groups according to the body weight of the animals and the optical signal intensity of the tumor site, with 5 animals in each group.
The mice were imaged 1-2 times a week according to their state using the small animal in vivo imaging system IVIS Lumina III (Perkin Elmer). The bioluminescence imaging (BLI, unit: photons/s) signal intensity at the tumor cell inoculation site of mouse was monitored as the main indicator for evaluating tumor growth and drug efficacy. The specific operation is as follows:
The mice were intraperitoneally injected with D-luciferin (15 mg/mL, 5 μL/g according to the body weight of the experimental animal), and then inhaled anesthetized with 1%-2% isoflurane. 10 min after the injection of D-luciferin, the animals were imaged with IVIS Lumina III. The data were analyzed and processed using Living Image software (Perkin Elmer), and the optical signal intensity in ROI (regions of interest) of each animal was calculated.

[3] = system: TMD8 cell proliferation; assay: In vitro cell proliferation inhibitory activity test (CTG), TMD8; format: cell-based; details: Homo sapiens, TMD8, 72 h, TMD8 cells
Protocol: as §1, §2, §3, §4, §5, §6, §7, §8, §9, §10, §11, §12, §13, §14, §15, §16, §17, §18, §19, §20, §21

[4] = Pharmacokinetic test, oral, SD rats; format: in vivo; details: rat, plasma, oral 10 mg/kg
Protocol: Each test compound was administered orally (10 mg/kg, 3 rats in each group) to SD rats for pharmacokinetic study. […] Animals were fasted overnight before oral administration, and fed again after 4 h of administration. […] At each collection time point, 3 whole blood samples were collected at a the collection volume of about 0.2-0.3 mL. […] The collected plasma was stored at −20° C. before analysis. 20 μL of plasma sample was added into a 1.6 mL 96-well deep-well plate, added with 200 μL of working internal standard solution (the same volume of vehicle was added to the blank instead of internal standard), vortexed for 1 min, and centrifuged at 5800 rpm for 10 min. 100 μL of the supernatant was added to a 96-well injection plate for LC-MS/MS analysis.

Row | Structure (SMILES) | pIC50 [1] | inhibitory effect against the tumor compared with Tirabrutinib [2] | fluorescence image of brain tumor (red area = tumor size) [2] | side effects [2] | pIC50 [3] | AUC(0-inf) [4] [ng·h/mL] | Cmax [4] [ng/mL] | half-life ([4]; read-out: T½ (converted)) [h]
1 | Nc1nccn2c(C3CCC(CO)OC3)nc(-c3ccc(C(F)(F)c4ccccc4)cc3)c12 (single isomer, unassigned) [Example 111-P1] | 6.94 | significantly better inhibitory effect against the tumor than Tirabrutinib | very good inhibitory effect against the tumor, with almost no red area | no side effects had been found |  |  |  | 
2 | Nc1nccn2c(C34CCC(CO)(CC3)OC4)nc(-c3ccc(C(F)(F)c4ccccc4)cc3)c12 [Example 125] | 6.94 | significantly better inhibitory effect against the tumor than Tirabrutinib | very good inhibitory effect against the tumor, with almost no red area | no side effects had been found | 7.03 |  |  | 
3 | Nc1nccn2c(C34CCC(CO)(CC3)OC4)nc(-c3ccc(C(F)(F)c4ccccc4F)cc3)c12 [Example 145] |  |  |  |  |  | 17200 | 1550 | 2.78
